From EPA's CvTdb concentration-time database

Columns and labels:
[1] = system: Mouse; test: concentration in plasma after dosing; settings: dosed: 2,4-Dichlorophenoxyacetic acid, 1.0 mg/kg, iv, Male, B6C3F1
[2] = system: Rat; test: concentration in plasma after dosing; settings: dosed: 2-Hydroxy-4-methoxybenzophenone, 250 mg/kg, oral, Male, F344
[3] = system: Rat; test: concentration in plasma after dosing; settings: 0.25 h; dosed: 2-Hydroxy-4-methoxybenzophenone; 500 mg/kg; oral; Female; F344
[4] = system: Rat; test: concentration in plasma after dosing; settings: 4 h; dosed: 2-Hydroxy-4-methoxybenzophenone; 500 mg/kg; oral; Male; F344
[5] = system: Mouse; test: concentration in plasma after dosing; settings: dosed: 2-Hydroxy-4-methoxybenzophenone, 100 mg/kg, oral, Male, B6C3F1
[6] = system: Rat; test: concentration in plasma after dosing; settings: dosed: 2-Hydroxy-4-methoxybenzophenone, 250 mg/kg, oral, Male, F344; remark: listed apart in the source
[7] = system: Mouse; test: concentration in plasma after dosing; settings: 0.25 h; dosed: 2-Hydroxy-4-methoxybenzophenone; 250 mg/kg; oral; Female; B6C3F1
[8] = system: Mouse; test: concentration in plasma after dosing; settings: 10 min; dosed: 2-Hydroxy-4-methoxybenzophenone; 500 mg/kg; oral; Female; B6C3F1
[9] = system: Mouse; test: concentration in plasma after dosing; settings: dosed: 2-Hydroxy-4-methoxybenzophenone, 100 mg/kg, oral, Male, B6C3F1; remark: listed apart in the source
[10] = system: Mouse; test: concentration in plasma after dosing; settings: 0.25 h; dosed: 2-Hydroxy-4-methoxybenzophenone; 500 mg/kg; oral; Female; B6C3F1
[11] = system: Rat; test: concentration in plasma after dosing; settings: dosed: Methyleugenol, 37 mg/kg, oral, Male, F344/N
[12] = system: Rat; test: concentration in plasma after dosing; settings: dosed: Methyleugenol, 37 mg/kg, oral, Female, F344/N
[13] = system: Rat; test: concentration in liver after dosing; settings: 3 h; dosed: Perfluorohexane-1-sulphonic acid – potassium salt; 16 mg/kg; oral; Female; Harlan Sprague Dawley
[14] = system: Rat; test: concentration in liver after dosing; settings: 96 h; dosed: Perfluorohexane-1-sulphonic acid – potassium salt; 16 mg/kg; oral; Female; Harlan Sprague Dawley
[15] = system: Rat; test: concentration in kidney after dosing; settings: 192 h; dosed: Perfluorohexane-1-sulphonic acid – potassium salt; 16 mg/kg; oral; Female; F344
[16] = system: Rat; test: concentration in kidney after dosing; settings: 48 h; dosed: Perfluorohexane-1-sulphonic acid – potassium salt; 16 mg/kg; oral; Female; Harlan Sprague Dawley
[17] = system: Rat; test: concentration in kidney after dosing; settings: 192 h; dosed: Perfluorohexane-1-sulphonic acid – potassium salt; 16 mg/kg; oral; Female; Harlan Sprague Dawley
[18] = system: Rat; test: concentration in kidney after dosing; settings: 6 h; dosed: Perfluorohexane-1-sulphonic acid – potassium salt; 16 mg/kg; oral; Female; Harlan Sprague Dawley
[19] = system: Rat; test: concentration in plasma after dosing; settings: dosed: Perfluorohexane-1-sulphonic acid – potassium salt, 4 mg/kg, oral, Male, F344
[20] = system: Rat; test: concentration in kidney after dosing; settings: 96 h; dosed: Perfluorohexane-1-sulphonic acid – potassium salt; 16 mg/kg; oral; Female; Harlan Sprague Dawley
[21] = system: Rat; test: concentration in kidney after dosing; settings: 48 h; dosed: Perfluorohexane-1-sulphonic acid – potassium salt; 16 mg/kg; oral; Female; Harlan Sprague Dawley; remark: listed apart in the source
[22] = system: Rat; test: concentration in plasma after dosing; settings: 0.5 h; dosed: Primidone; 130 mg/kg; oral; Male; Harlan Sprague Dawley
[23] = system: Rat; test: concentration in plasma after dosing; settings: dosed: Pyridine, 25 mg/kg, oral, Male, F344
[24] = system: Rat; test: concentration in plasma after dosing; settings: dosed: Pyridine, 5 mg/kg, iv, Male, F344
[25] = system: Rat; test: concentration in brain after dosing; settings: 2 min; dosed: alpha-Thujone; 25 mg/kg; oral; Female; Harlan Sprague Dawley
[26] = system: Rat; test: concentration in brain after dosing; settings: 1.5 h; dosed: alpha-Thujone; 25 mg/kg; oral; Male; Harlan Sprague Dawley
[27] = system: Rat; test: concentration in brain after dosing; settings: 0.5 h; dosed: alpha-Thujone; 50 mg/kg; oral; Female; Harlan Sprague Dawley
[28] = system: Rat; test: concentration in brain after dosing; settings: 2 min; dosed: alpha-Thujone; 50 mg/kg; oral; Female; Harlan Sprague Dawley
[29] = system: Rat; test: concentration in brain after dosing; settings: 10 min; dosed: alpha-Thujone; 25 mg/kg; oral; Male; Harlan Sprague Dawley
[30] = system: Rat; test: concentration in plasma after dosing; settings: 6 h; dosed: alpha-Thujone; 25 mg/kg; oral; Male; Harlan Sprague Dawley
[31] = system: Rat; test: concentration in plasma after dosing; settings: 2 min; dosed: alpha-Thujone; 50 mg/kg; oral; Female; Harlan Sprague Dawley
[32] = system: Rat; test: concentration in plasma after dosing; settings: 1.5 h; dosed: alpha-Thujone; 25 mg/kg; oral; Male; Harlan Sprague Dawley
[33] = system: Rat; test: concentration in plasma after dosing; settings: 2 min; dosed: alpha-Thujone; 50 mg/kg; oral; Male; Harlan Sprague Dawley
[34] = system: Rat; test: concentration in plasma after dosing; settings: 5 min; dosed: alpha-Thujone; 50 mg/kg; oral; Female; Harlan Sprague Dawley
[35] = system: Rat; test: concentration in plasma after dosing; settings: 3 h; dosed: alpha-Thujone; 25 mg/kg; oral; Male; Harlan Sprague Dawley

O=C(O)COc1ccc(Cl)cc1Cl [2,4-Dichlorophenoxyacetic acid]
[1]
Settings | concentration in plasma [ng/mL]
0.25 h | 7400
0.5 h | 5390
1 h | 5370
2 h | 1290
2.5 h | 211
2.5 min | 7760
3 h | 248
5 min | 6530
10 min | 9300

O=C(c1ccccc1)c1ccc(O)cc1O [2,4-Dihydroxybenzophenone]
Settings | concentration in plasma [ng/mL]
[2], 0.5 h | 256
[2], 10 h | 66.8
[5], 0.25 h | 352
[5], 2 h | 173
[5], 2.5 min | 64.5
[5], 3 h | 105
[5], 10 min | 161
[6], 0.25 h | 83
[6], 4 h | 121
[9], 0.25 h | 433
[9], 2 h | 177
[9], 2.5 min | 185
[9], 3 h | 119
[9], 10 min | 301

Settings | concentration in plasma [ng/mL]
[3] | 1540
[4] | 124
[7] | 1050
[8] | 4230
[10] | 2690

C=CCc1ccc(OC)c(OC)c1 [Methyleugenol]
concentration in plasma [ng/mL]
Settings | 5 min | 6 h | 10 min
[11] | 670 | 11.6 | –
[12] | – | 8.85 | 254

O=S(=O)([O-])C(F)(F)C(F)(F)C(F)(F)C(F)(F)C(F)(F)C(F)(F)F.[K+] [Perfluorohexane-1-sulphonic acid – potassium salt]
Settings | concentration in kidney [ng/g] | concentration in liver [ng/g]
[13] | – | 57400
[14] | – | 10200
[15] | 15300 | –
[16] | 12000 | –
[17] | 1560 | –
[18] | 36500 | –
[20] | 5570 | –
[21] | 11300 | –

[19]
Settings | concentration in plasma [ng/mL]
0.25 h | 5490
12 h | 31800
528 h | 8940

CCC1(c2ccccc2)C(=O)NCNC1=O [Primidone]
Settings | concentration in plasma [ng/mL]
[22] | 47000

c1ccncc1 [Pyridine]
concentration in plasma [ng/mL]
Settings | 0.5 h | 4 h | 5 min | 8 h
[23] | – | 15900 | 7460 | –
[24] | 2590 | – | – | 881

CC(C)[C@]12CC(=O)[C@H](C)[C@H]1C2 [alpha-Thujone]
Settings | concentration in brain [ng/g] | concentration in plasma [ng/mL]
[25] | 36.5 | –
[26] | 592 | –
[27] | 8580 | –
[28] | 13.2 | –
[29] | 1080 | –
[30] | – | 42.9
[31] | – | 33.6
[32] | – | 186
[33] | – | 152
[34] | – | 343
[35] | – | 113
